The source of these data is US11059795B2, “Androgen receptor modulators and methods for their use” (ESSA Pharma, Inc., priority 2018, dated 2021).

Usually IC50 stands for the point on the concentration scale where inhibition reaches its midpoint.

The target in data set [1] is T1, LBD of progesterone receptor-beta (PRβ) fused to DBD of GAL4 (Homo sapiens, UniProt P06401).
T1 sequence (P06401 679-913 limits assumed): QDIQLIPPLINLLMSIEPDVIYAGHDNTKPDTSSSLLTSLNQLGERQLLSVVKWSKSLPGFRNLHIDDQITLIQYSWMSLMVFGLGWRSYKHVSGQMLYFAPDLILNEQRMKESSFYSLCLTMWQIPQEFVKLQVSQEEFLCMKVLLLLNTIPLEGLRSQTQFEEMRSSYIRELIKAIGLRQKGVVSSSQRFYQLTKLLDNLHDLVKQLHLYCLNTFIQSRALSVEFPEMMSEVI
In words: LBD-expressing reporter assay (GeneBLAzer), PR LBD. Type of data set: cell-based. The note with it: inhibition of maximal activity attained with agonist; read-out: Steroid Receptor LBD IC50 (μM) PR. An excerpt:
This assay uses cells that stably express a chimera fusion protein comprising the LBD of a steroid hormone receptor fused to the DNA-binding domain (DBD) of GAL4 along with beta-lactamase reporter under transcriptional control of an upstream activator sequence (UAS). When agonist binds to the LBD of the GAL4 (DBD)-steroid hormone (LBD) chimera fusion protein, the protein binds to the UAS, resulting in expression of beta-lactamase. LBDs of androgen receptor (AR), progesterone receptor-beta (PRβ), glucocorticoid receptor (GR), estrogen receptor-α (ERα), and estrogen receptor-β (ERβ) were tested and IC50s calculated for inhibiting maximal activity attained with agonist.
On the technique in general: Reporter assays use an easily measured gene product as a stand-in for the process of interest.

Data set [2] in a line: Microsomal stability assay, monkey liver microsomes. In kind it is in vitro ADME. To be noted: pH 7.4, read-out: Liver microsome T½ (min) Monkey. The procedure: (§1) Microsomal stability assay is a widely used in vitro model to characterize the metabolic conversion by phase I enzymes, such as cytochrome P450 (CYP) enzymes. Since metabolism is known to be highly variable in different species, microsomal stability assay is commonly run in multiple species. Metabolic stability of testing compound can be evaluated using human, rat, mouse, or other animal liver or intestine microsomes to predict intrinsic clearance.
(§2) The assay was carried out in 96-well microtiter plates at 37° C. Reaction mixtures (25 μL) contained a final concentration of 1 μM test compound, 0.5 mg/mL liver microsomes protein, and 1 mM NADPH and/or 1 mM UDPGA (with alamethicin) in 100 mM potassium phosphate, pH 7.4 buffer with 3 mM MgCl2. The incubation was done with N=1, but duplicate incubation at each time point can be prepared if necessary. At each of the time points (for example, 0, 15, 30, and 60 minutes), 150 μL of quench solution (100% acetonitrile with 0.1% formic acid) with internal standard was transferred to each well. Besides the zero minute controls, mixtures containing the same components except the NADPH can also be prepared as the negative control. Verapamil was included as a positive control to verify assay performance. Plates were sealed, vortexed, and centrifuged at 4° C. for 15 minutes at 4000 rpm. The supernatant is transferred to fresh plates for LC/MS/MS analysis.
(§3) Summarized conditions: [Compound]=[…], [LM]=0.5 mg/mL, [NADPH]=1 mM and/or [UDPGA]=1 mM, Buffer=100 mM Potassium Phosphate, pH 7.4 with 3 mM MgCl2, Time=0, 15, 30, and 60 min, and Temperature=37° C.
(§4) All samples were analyzed on LC/MS/MS using an AB Sciex API 4000 instrument, coupled to a Shimadzu LC-20AD LC Pump system. Analytical samples were separated using a Waters Atlantis T3 dC18 reverse phase HPLC column (20 mm×2.1 mm) at a flow rate of 0.5 mL/min. The mobile phase consisted of 0.1% formic acid in water (solvent A) and 0.1% formic acid in 100% acetonitrile (solvent B).
(§5) The extent of metabolism is calculated as the disappearance of the test compound, compared to the 0-min time incubation. Initial rates are calculated for the compound concentration and used to determine half-life (t½) values and subsequently, the intrinsic clearance (Clint). Clint=(0.693)(1/t½ (min))(g of liver/kg of body weight)(mL incubation/mg of microsomal protein)(45 mg of microsomal protein/g of liver weight)

The nature of data set [3]: Microsomal stability assay, mouse liver microsomes. Type of data set: in vitro ADME. In short, it runs like this: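 Compound at 1 μM was incubated at 37° C with 0.5 mg/mL liver microsomes and 1 mM NADPH and/or 1 mM UDPGA (with alamethicin) in 100 mM potassium phosphate pH 7.4, 3 mM MgCl2. Samples were taken at 0, 15, 30 and 60 min and measured by LC/MS/MS. t½ came from compound loss relative to 0 min, and Clint was scaled with 45 mg microsomal protein/g liver.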

A short description of data set [4]: Microsomal stability assay, dog liver microsomes. Type of data set: in vitro ADME. The note with it: pH 7.4, read-out: Liver microsome T½ (min) Dog. As to the method: as §1, §2, §3, §4, §5
The nature of data set [5]: Hepatocyte stability assay, rat hepatocytes. Type of data set: in vitro ADME. To be noted: cryopreserved hepatocytes, read-out: Hepatocytes T½ (min) Rat.
Excerpt: The […] of in vitro intrinsic clearance (Clint) for drug candidates in the early discovery stage is common practice in the pharmaceutical industry. The Clint values of drug candidates can help to confirm whether metabolism is the main clearance pathway when it is compared with the total body clearance in vivo. Hepatocytes are among the routinely used in vitro systems for measuring clearance. Hepatocytes have been reported to retain most of the phase I and phase II metabolic activities, and therefore, it is a useful tool to estimate the intrinsic clearance for potential drug candidates.
Metabolic stability of testing compound were be evaluated using human and mouse hepatocytes and can also be use rat, mouse, or other animal hepatocytes to predict intrinsic clearance. Cryopreserved hepatocytes were removed from the liquid nitrogen tank and thawed in a 37° C. water bath. As soon as the cells pulled away from the vial wall, they were decanted into 48 ml of warm HT medium. Cells were centrifuged for four minutes at 420 rpm (50 g). After removing the supernatant, pellet was re-suspended in warm DMEM medium. Cell density was counted by a hemacytometer.
The assay was carried out in 96-well microtiter plates. Compounds were incubated for 0, 60, 120, and 180 minutes at 37° C. with hepatocytes. Reaction mixtures (50 μL) contained a final concentration of 1 μM test compound, 0.5 million cells/mL hepatocytes in the DMEM medium. At each of the time points (for example, 0, 1, 2, and 3 hours), 200 μL of quench solution (100% acetonitrile with 0.1% formic acid) with internal standard was transferred to each well. Midazolam was included as a positive control to verify assay performance. Plates were sealed and centrifuged at 4° C. for 15 minutes at 4000 rpm. The supernatant is transferred to fresh plates for LC/MS/MS analysis.
Summarized conditions (customizable): [Compound]=[…], Positive control: midazolam and/or naloxone, [Hepatocyte]=0.5 million cells/Ml, time=0, 60, 120, and 180 min, t=37° C.
as §4
The extent of metabolism was calculated as the disappearance of the test compound, compared to the 0-min control reaction incubations. Initial rates were calculated for the compound concentration and used to determine t½ values and subsequently, the intrinsic clearance, Clint. Clint=(0.693)(1/t½(min))(mL incubation/million cells)

The nature of data set [6]: Microsomal stability assay, rat liver microsomes. In kind it is in vitro ADME. To be noted: pH 7.4, read-out: Liver microsome T½ (min) Rat. The procedure:
as §1, §2, §3, §4, §5
(In general: Liver microsomes are a subcellular fraction often used to study metabolism.)

Data set [7] can be described thus: Hepatocyte stability assay, mouse hepatocytes. Type of data set: in vitro ADME. To be noted: cryopreserved hepatocytes. Summed up:
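Cryopreserved rat, human or mouse hepatocytes at 0.5 million cells/mL in DMEM with 1 μM compound, 37° C, sampled at 0, 60, 120 and 180 min and quenched with acetonitrile/formic acid. Parent loss vs 0-min by LC/MS/MS gave t½, and Clint = 0.693/t½ × mL incubation/million cells.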

On to `CC(C)(c1ccc(OCc2ocnc2S(C)(=O)=O)cc1)c1cc(Cl)c(OCCCl)c(Cl)c1` [Compound A13, 5-((4-(2-(3,5-dichloro-4-(2-chloroethoxy)phenyl)propan-2-yl)phenoxy)methyl)-4-(methylsulfonyl)oxazole], for which the IC50 in data set [1] came to 0.97 µM. Also, the half-life at 1 μM is more than 120 min in data set [2]; more than 120 min in data set [3] (pH 7.4, mouse liver microsomes, read-out: Liver microsome T½ (min) Mouse); more than 120 min in data set [4]; 75 min in data set [5]; 64 min in data set [6]; 203 min in data set [7] (read-out: Hepatocytes T½ (min) Mouse). Moreover, in data set [3] (mouse, liver microsomes, pH 7.4, mouse liver microsomes, 1 μM compound, 0.5 mg/mL protein, 37° C., read-out: MLM +30/− NADPH: Clint (μL/min/mg protein)), the microsomal CLint at 1 μM is less than 12 µL/min/mg. In data set [7] (mouse, 1 μM compound, 0.5 million cells/mL, 37° C., read-out: MH +/− NADPH: Clint (μL/min/million cells)), the hepatocyte CLint at 1 μM is 4 to 18 µL/min/1e6 cells.
